± gives the standard deviation of the averaged measurements.
Tests used:
Test in all cases: level (log10 ratio to DMSO vehicle control); higher = higher biomarker level / cell amount than vehicle control
Conditions in all cases: in DMSO
[1] = compound: FC(F)(F)C(F)(F)C(F)(F)C(F)(F)C(F)(F)C(F)(F)C(F)(F)CCI [1-Iodo-1H,1H,2H,2H-perfluorononane]
Method: (§1)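 BioMAP Diversity Plus panel of 12 human primary cell co-culture systems (3C, 4H, LPS, SAg, BT, BF4T, BE3C, CASM3C, HDF3CGF, KF3CT, MyoF, Mphg). Compounds were added 1 h before stimulation and left for 24 h (MyoF 48 h; BT 72 h for soluble read-outs or 6 d for IgG). Biomarkers were read by ELISA, cytotoxicity by SRB, PBMC viability and proliferation by Alamar Blue. Each well value was divided by the mean of 8 DMSO control wells on the same plate and log10 transformed; duplicate blinded samples were tested at 4 concentrations.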

[2] = compound: O=S(=O)(O)C(F)(F)C(F)(F)C(F)(F)C(F)(F)C(F)(F)C(F)(F)C(F)(F)C(F)(F)F [Perfluorooctanesulfonic acid]
Method: as §1

Perfluorooctanamidine = compound: N=C(N)C(F)(F)C(F)(F)C(F)(F)C(F)(F)C(F)(F)C(F)(F)C(F)(F)F [Perfluorooctanamidine]
Method: as §1

[3] = compound: CC(C)(C)C(=O)CC(=O)C(F)(F)C(F)(F)C(F)(F)F [(Heptafluorobutanoyl)pivaloylmethane]
Method: as §1

1-(Perfluorohexyl)octane = compound: CCCCCCCCC(F)(F)C(F)(F)C(F)(F)C(F)(F)C(F)(F)C(F)(F)F [1-(Perfluorohexyl)octane]
Method: as §1

Hexafluoroglutaric acid = compound: O=C(O)C(F)(F)C(F)(F)C(F)(F)C(=O)O [Hexafluoroglutaric acid]
Method: as §1

Perfluorooctanamide = compound: NC(=O)C(F)(F)C(F)(F)C(F)(F)C(F)(F)C(F)(F)C(F)(F)C(F)(F)F [Perfluorooctanamide]
Method: as §1

Row | Test System | level (log10) ([1]; 6700 nM) | level (log10) ([1]; 20000 nM) | level (log10) ([2]; 6700 nM) | level (log10) ([2]; 20000 nM) | level (log10) ([2]; 60000 nM) | level (log10) (Perfluorooctanamidine; 6700 nM) | level (log10) (Perfluorooctanamidine; 20000 nM) | level (log10) (Perfluorooctanamidine; 60000 nM) | level (log10) ([3]; 6700 nM) | level (log10) ([3]; 20000 nM) | level (log10) ([3]; 60000 nM) | level (log10) (1-(Perfluorohexyl)octane; 6700 nM) | level (log10) (1-(Perfluorohexyl)octane; 20000 nM) | level (log10) (Hexafluoroglutaric acid; 6700 nM) | level (log10) (Hexafluoroglutaric acid; 20000 nM) | level (log10) (Hexafluoroglutaric acid; 60000 nM) | level (log10) (Perfluorooctanamide; 6700 nM) | level (log10) (Perfluorooctanamide; 20000 nM) | level (log10) (Perfluorooctanamide; 60000 nM)
1 | 3C:CCL2/MCP-1 | -0.005 | 0.019 ± 0.011 | 0.0115 ± 0.0035 | -0.012 ± 0.0028 | -0.0065 ± 0.013 | 0.0185 ± 0.012 | 0.0085 ± 0.011 | 0.062 | -0.0035 ± 0.0021 | -0.007 ± 0.018 | 0.0015 ± 0.043 | -0.008 ± 0.0014 | 0.0205 ± 0.023 | -0.0005 ± 0.0035 | 0.0095 ± 0.0035 | 0.028 ± 0.018 | 0.0085 ± 0.028 | -0.01 ± 0.0014 | 0.0105 ± 0.054
2 | 3C:CD54/ICAM-1 | -0.0115 ± 0.00071 | 0.0025 ± 0.016 | 0.004 ± 0.023 | 0.0185 ± 0.019 | 0.071 ± 0.024 | -0.0065 ± 0.0035 | -0.038 ± 0.013 | -0.049 | -0.0015 ± 0.019 | -0.0095 ± 0.005 | 0.03 ± 0.011 | 0.0025 ± 0.013 | 0.0165 ± 0.005 | -0.0125 ± 0.018 | -0.0165 ± 0.019 | -0.0175 ± 0.018 | -0.012 ± 0.011 | -0.003 ± 0.013 | 0.0335 ± 0.012
3 | 3C:CD62E/E-Selectin | -0.0135 ± 0.0035 | -0.028 ± 0.014 | 0.004 ± 0.0042 | 0.0175 ± 0.018 | 0.0695 ± 0.011 | -0.0045 ± 0.023 | -0.005 ± 0.027 | -0.039 | -0.0155 ± 0.0092 | -0.022 ± 0.0099 | -0.003 ± 0.017 | -0.0065 ± 0.011 | -0.02 ± 0.0071 | -0.0035 ± 0.053 | -0.002 ± 0.038 | 0.031 ± 0.014 | -0.009 ± 0.013 | -0.0115 ± 0.0078 | 0.004 ± 0.025
4 | 3C:CD106/VCAM-1 | -0.015 ± 0.014 | -0.0115 ± 0.0021 | 0.0005 ± 0.026 | 0.0045 ± 0.035 | 0.0295 ± 0.015 | -0.017 ± 0.028 | -0.037 ± 0.031 | -0.088 | 0.0015 ± 0.00071 | -0.0045 ± 0.026 | 0.019 ± 0.018 | -0.009 ± 0.0057 | 0.0045 ± 0.0092 | 0.009 ± 0.018 | 0.004 ± 0.021 | -0.008 ± 0.0057 | -0.023 ± 0.0028 | -0.005 ± 0.0099 | -0.004 ± 0.0057
5 | 3C:CD141/Thrombomodulin | -0.028 ± 0.0014 | -0.01 ± 0.041 | -0.0015 ± 0.012 | -0.0025 ± 0.011 | 0.0455 ± 0.022 | -0.015 ± 0.031 | -0.021 ± 0.024 | -0.013 | -0.0095 ± 0.015 | 0.024 ± 0.011 | 0.187 ± 0.014 | 0.0125 ± 0.015 | -0.0105 ± 0.018 | -0.018 ± 0.017 | -0.014 ± 0.011 | -0.034 ± 0.0099 | -0.006 ± 0.02 | -0.0115 ± 0.022 | -0.0185 ± 0.039
6 | 3C:CD142/Tissue Factor | 0.01 ± 0.0071 | 0.0065 ± 0.0078 | -0.0185 ± 0.07 | -0.0285 ± 0.073 | 0.0315 ± 0.067 | -0.02 ± 0.018 | -0.0105 ± 0.012 | -0.014 | -0.0205 ± 0.015 | -0.0235 ± 0.005 | -0.053 ± 0.014 | -0.0025 ± 0.0078 | 0.0215 ± 0.023 | -0.006 ± 0.02 | -0.004 ± 0.028 | -0.0685 ± 0.005 | 0.029 ± 0.033 | 0.009 ± 0.013 | 0.0245 ± 0.06
7 | BE3C:Keratin 8/18 | -0.005 ± 0.017 | -0.007 ± 0.0085 | 0.0205 ± 0.0021 | 0.016 ± 0.011 | -0.073 ± 0.04 | -0.0165 ± 0.0021 | -0.014 ± 0.0057 | 0.007 | 0.009 ± 0.0014 | 0.009 ± 0.0057 | 0.001 ± 0.025 | 0.011 ± 0.0071 | 0.004 ± 0.054 | -0.006 ± 0.0085 | -0.018 ± 0.0014 | -0.003 ± 0.0042 | -0.001 ± 0.0085 | -0.009 ± 0.0028 | -0.0105 ± 0.0078
8 | BE3C:MMP-1 | 0.011 ± 0.0071 | 0.059 ± 0.031 | 0.149 ± 0.067 | 0.155 ± 0.012 | -0.0685 ± 0.26 | 0.0525 ± 0.03 | 0.057 ± 0.044 | 0.262 | -0.0025 ± 0.0035 | -0.019 ± 0.013 | 0.0095 ± 0.033 | 0.0155 ± 0.018 | 0.0395 ± 0.053 | -0.011 ± 0.0099 | -0.023 ± 0.016 | 0.007 ± 0.058 | 0.0075 ± 0.0078 | 0.014 ± 0.0071 | 0.022 ± 0.018
9 | BE3C:MMP-9 | -0.0045 ± 0.013 | -0.0045 ± 0.026 | -0.0185 ± 0.018 | -0.117 ± 0.0035 | -0.215 ± 0.086 | -0.0115 ± 0.005 | -0.015 ± 0.023 | -0.001 | -0.0145 ± 0.018 | 0.004 ± 0.0014 | -0.032 ± 0.04 | -0.0065 ± 0.0021 | -0.005 ± 0.0057 | -0.0035 ± 0.023 | -0.0025 ± 0.032 | 0.0145 ± 0.042 | -0.0085 ± 0.0064 | 0.002 ± 0.0028 | 0.0015 ± 0.013
10 | BE3C:PAI-I | 0.016 ± 0.0071 | -0.01 ± 0.0099 | -0.006 ± 0.0014 | -0.195 ± 0.0028 | -0.301 ± 0.0035 | 0.0015 ± 0.00071 | -0.006 ± 0.0099 | -0.021 | -0.028 ± 0.068 | -0.009 ± 0.083 | -0.0145 ± 0.1 | -0.025 ± 0.0057 | -0.024 | -0.0205 ± 0.016 | -0.014 ± 0.027 | 0.002 ± 0.03 | -0.01 ± 0.016 | 0.016 ± 0.0085 | 0.022 ± 0.0057
11 | BE3C:SRB | -0.0035 ± 0.0021 | 0.0005 ± 0.00071 | -0.0095 ± 0.0064 | -0.2205 ± 0.00071 | -0.371 ± 0.016 | -0.0075 ± 0.005 | -0.001 ± 0.016 | 0.009 | -0.0035 ± 0.0035 | -0.0035 ± 0.00071 | -0.0075 ± 0.019 | -0.0005 ± 0.0021 | 0.002 ± 0.0028 | 0.0035 ± 0.0035 | -0.005 | 0.0125 ± 0.012 | -0.005 ± 0.0057 | -0.003 ± 0.0057 | 0.0005 ± 0.0035
12 | BE3C:tPA | 0.004 ± 0.035 | 0.011 ± 0.035 | 0.119 ± 0.013 | -0.09 ± 0.0099 | -0.253 ± 0.025 | 0 ± 0.0028 | -0.006 ± 0.0014 | 0.019 | -0.026 ± 0.0071 | -0.0035 ± 0.025 | -0.0275 ± 0.032 | -0.0015 ± 0.03 | 0 ± 0.033 | -0.008 ± 0.0014 | -0.0465 ± 0.005 | -0.0085 ± 0.022 | 0.008 ± 0.018 | 0.0385 ± 0.011 | 0.049 ± 0.05
13 | BE3C:uPA | 0.003 ± 0.033 | -0.0125 ± 0.015 | -0.003 ± 0.0099 | -0.031 | -0.122 ± 0.013 | -0.008 ± 0.011 | -0.0095 ± 0.0078 | 0.004 | 0.0025 ± 0.018 | -0.0035 ± 0.023 | 0.002 ± 0.03 | -0.0145 ± 0.012 | -0.0145 ± 0.0092 | -0.01 ± 0.0085 | -0.017 ± 0.0042 | -0.0075 ± 0.011 | 0.0025 ± 0.0035 | 0.0005 ± 0.005 | 0.0135 ± 0.0021
14 | CASM3C:CCL2/MCP-1 | 0.003 ± 0.0099 | 0.02 ± 0.018 | -0.0025 ± 0.015 | -0.0065 ± 0.0064 | 0.019 ± 0.023 | 0.008 ± 0.024 | 0.011 ± 0.034 | 0.085 | -0.008 ± 0.017 | -0.0025 ± 0.021 | -0.0075 ± 0.0092 | -0.0065 ± 0.018 | 0.001 ± 0.0042 | -0.0115 ± 0.033 | -0.024 ± 0.025 | 0.0205 ± 0.039 | -0.013 ± 0.03 | -0.013 ± 0.014 | -0.014 ± 0.0099
15 | CASM3C:CD87/uPAR | -0.0105 ± 0.028 | -0.013 ± 0.028 | -0.0005 ± 0.0078 | -0.0085 ± 0.015 | -0.016 ± 0.016 | -0.011 ± 0.016 | -0.02 ± 0.037 | -0.034 | 0.003 ± 0.02 | -0.0235 ± 0.0064 | -0.014 ± 0.023 | -0.0175 ± 0.0078 | -0.005 ± 0.011 | -0.001 ± 0.014 | -0.0185 ± 0.033 | -0.0075 ± 0.0035 | -0.009 ± 0.0014 | -0.001 ± 0.024 | 0.0045 ± 0.0092

— the supplement of paper PMC10331698
